Reference: patent US20220177587A1, “METHODS AND USES OF VARIANT CD80 FUSION PROTEINS AND RELATED CONSTRUCTS” (Alpine Immune Sciences, Inc., priority 2018, published 2022)

Key:
huCTLA4 = huCTLA4 (Homo sapiens, UniProt P16410); assay: Antagonism of CD80/CTLA-4 binding on CHO cells expressing CTLA-4; parameters: Full-length mammalian surface expression constructs for each of human CTLA-4, PD-L1, and CD28; settings: 25 nM fluorochrome-conjugated wild-type CD80-Fc; FIG. 21
Experimental: After washing, cells were incubated with 25 nM fluorochrome-conjugated wild-type CD80-Fc. Bound fluorescent competitor protein was detected and measured by flow cytometry.
(§1) The multivalent variant CD80 IgSF domain fusion proteins were assessed to test for blocking of the PD-L1/PD-1 and CTLA-4/CD80 interaction performed substantially as described in Example 15. CHO/OKT3/PD-L1 and CHO/CTLA-4 cells were counted and plated at 100,000 cells/well and then incubated with fluorescently conjugated PD-1-Fc and CD80-Fc. Exemplary multivalent variant CD80 IgSF domain fusion proteins were incubated with the cells for 30 minutes. […] Cells were washed and incubated with 100 nM fluorescently conjugated PD-1-Fc and CD80-Fc competitor for 30 minutes. Cells were then washed and samples were acquired on a flow cytometer and MFIs of the fluorescently labeled molecules were determined.

huPD-L1/MC38 cells = assay: huPD-L1 MC38 tumor model, combination with oxaliplatin; format: in vivo, mouse
Experimental: To test the anti-tumor activity of the exemplary variant, it was evaluated alone or in combination with the platinum-based chemotherapeutic agent, oxaliplatin, in mice bearing human PD-L1-expressing MC38 tumors, which is a syngeneic mouse colon carcinoma solid tumor model.
The huPD-L1 MC38 cell line was generated by transducing parental MC38 cells with huPD-L1 using viral transduction. Eight-week old female C57/BL6NJ mice (The Jackson Laboratories, Sacramento, Calif.) were implanted subcutaneously with 0.5×10^6 huPD-L1/MC38 cells. For injections, 0.1 mL of cells (0.5×10^6 cells) were injected subcutaneously (SC) in the right mid-flank region.
On day 1, mice were randomized into four groups of 10 mice each, with all mice in each group having about equal mean tumor volumes (˜108 mm^3). Tumors were measured with electronic calipers two-dimensionally twice weekly, beginning on day 7 post-tumor cell implant (referred to as “day 1”). Tumor volume was calculated as length×(width×2)×0.5, with the length being the longer of the two measurements.
As shown, 30% of the mice in the monotherapy group were tumor free by the end of the study.

huPD-L1/B16-F10 cells = assay: huPD-L1/B16-F10 melanoma model; format: in vivo, mouse
Experimental: This variant is an exemplary variant identified to have increased binding affinity for PD-L1 compared to wild-type CD80 and activity to block PD-L1 and CTLA-4 and to provide PD-L1-dependent T cell activation via CD28 costimulatory receptor. To test the anti-tumor activity of the exemplary variant, it was evaluated alone or in combination with an anti-mouse PD-1 monoclonal antibody (clone RMP1-14, rat IgG2a) in mice bearing human PD-L1 (huPD-L1)-expressing B16-F10 tumors, which is a syngeneic mouse melanoma model. This model is an aggressive and, in many cases, a treatment-resistant model.
Subconfluent cells (˜80% confluent) were harvested on the day of implantation (study day 0). The cells were washed twice and brought to a final concentration of 5×10^6 cells/mL in DPBS. Female C57BL/6NJ mice (Jackson Labs, USA) were implanted subcutaneously with approximately 0.5×10^6 huPD-L1/B16-F10 cells. […] The B16-F10 cells at time of implant were evaluated to confirm expression of huPD-L1 by flow cytometry. […]
Tumors were measured with electronic calipers two-dimensionally twice weekly, beginning on day 6 post-tumor cell implant. Tumor volume was calculated as length×(width×2)×0.5, with the length being the longer of the two measurements. […] Calculations for the mean and median were determined on the last day in which at least 70% of mice were alive on study (day 18 post-tumor cell implant).

PD-L1/PD-1 interaction = biological target: T1, PD-L1/PD-1 interaction (Homo sapiens, UniProt Q9NZQ7); assay: PD-L1/PD-1 binding and blocking on CHO/PD-L1 cells; settings: fluorescently conjugated PD-1-Fc; FIG. 7
T1 construct: expressed in transfected cells
T1 sequence (Q9NZQ7 19-290): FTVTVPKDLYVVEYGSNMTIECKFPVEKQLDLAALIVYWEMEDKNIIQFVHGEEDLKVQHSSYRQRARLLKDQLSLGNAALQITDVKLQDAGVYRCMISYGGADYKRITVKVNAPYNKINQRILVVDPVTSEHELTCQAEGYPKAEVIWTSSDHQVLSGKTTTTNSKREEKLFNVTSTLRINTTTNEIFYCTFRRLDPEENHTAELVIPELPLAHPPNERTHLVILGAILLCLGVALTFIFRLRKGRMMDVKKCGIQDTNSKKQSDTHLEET
Experimental: Binding of selected immunomodulatory fusion proteins to cells expressing PD-L1 was assessed to test for blocking of the PD-L1/PD-1 interaction. […] Samples were acquired on a flow cytometer and MFIs of the fluorescently labeled PD-1 were determined by Flowjo software analysis.
as §1

MC38 hPD-L1 tumor cells = assay: MC38 hPD-L1 tumor model in C57BL/6 mice; format: in vivo, mouse
Experimental: Mouse MC38 tumor cells were stably transfected with human PD-L1 (MC38 hPD-L1) and implanted subcutaneously into C57BU6 mice. […] Tumor volume was tracked over time.
70 female C57CL/6 mice, containing similar tumor volumes of approximately 50-51 mm^3, following implantation of MC38 hPD-L1 tumor cells, were staged and divided into 5 treatment groups containing 14 mice each. […] Tumor volumes were measured on days 7, 10, and 12. On day 13, 5 animals were sacrificed for analysis as described in the sections below. Tumor measurements resumed for the remaining 9 mice for each group on days 17, 20 and 27. On days 26, 28, and 31, the animals in Group 1 (Fc isotype control) received an intratumoral injection of 100 μg E35D/M47L CD80-IgV-Fc.
95 female C57BU6 mice were implanted with MC38 hPD-L1 tumor cells. The tumors were staged on Day 7, and 77 mice with similar tumor volumes of approximately 60 mm^3 were divided into 7 treatment groups containing 11 mice each.
On day 49, tumor-free mice, from Groups 3, 4, 6, and 7, and 2 naïve C57CL/6 mice were re-challenged with an additional injection of hPD-L1 MC38 cells. Tumor volumes were measured on days 56, 59, and 63. The results are depicted in FIG. 13. […] At day 59, 8/8 mice from Group 3, 1/2 mice from Group 4, 1/1 mouse from Group 6, and 2/2 mice from Group 7 were tumor-free, and by day 63, all mice in Group 3, Group 4, Group 6, and Group 7 were tumor-free.
75 animals were staged into 3 treatment groups 7 days after implantation with hPD-L1 MC38 tumor cells. […] Tumor volumes were measured every 3-4 days, from Day 11 until Day 35. 3 days after the 1st dose, 2nd dose and 3rd dose, 4 mice from each group were sacrificed for tumor and LN analyses, leaving 13 mice for tumor volume measurements throughout the study period.

[1] = in combination with oxaliplatin
[2] = 3 injections of 100 μg on Days 8, 10 and 12
[3] = re-challenged on day 49 with hPD-L1 MC38 cells

Chain of huCTLA4 (P16410 36-223): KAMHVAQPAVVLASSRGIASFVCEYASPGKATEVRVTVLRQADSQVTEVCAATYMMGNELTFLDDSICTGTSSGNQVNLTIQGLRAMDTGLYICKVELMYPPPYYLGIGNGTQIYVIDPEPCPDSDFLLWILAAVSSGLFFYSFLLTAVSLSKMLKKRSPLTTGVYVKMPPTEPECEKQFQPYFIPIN

Substance: H18Y/A26E/E35D/M47L/V68M/A71G/D90G: variant CD80 IgV-Fc (inert), IgV SEQ ID NO:491
- antagonism of binding of CD80 to CTLA-4 (huCTLA4): antagonized the binding of CD80 to CTLA-4
- tumor free mice (huPD-L1/MC38 cells; [1]): 90%
- tumor growth over time (huPD-L1/MC38 cells; [1]): significantly greater reductions in tumor growth over time were observed than with either of the agents alone
- mean TGI (huPD-L1/MC38 cells; in combination with oxaliplatin, day 25): ~100%
- median tumor volume (huPD-L1/MC38 cells; in combination with oxaliplatin, eleven days after start of dosing): dropped to zero
- antitumor activity (huPD-L1/MC38 cells; monotherapy): had potent antitumor activity
- tumor free mice by the end of the study (huPD-L1/MC38 cells; monotherapy): 30%
- tumor growth inhibition (huPD-L1/B16-F10 cells; in combination with anti-PD-1 mAb, day 18): 92%
- tumor growth (median tumor volumes) (huPD-L1/B16-F10 cells; in combination with anti-mouse PD-1 mAb, IP days 6, 8, 11): significantly reduced tumor growth
- blocking of binding of PD-1 to PD-L1 (PD-L1/PD-1 interaction): antagonize or block binding of PD-1 to PD-L1
- mice with no detectable tumors (tumor-free) upon completion of the study (MC38 hPD-L1 tumor cells; 100 μg on days 7, 9 and 11, 11 mice per group): 8 mice
- tumor-free mice at day 35 (MC38 hPD-L1 tumor cells; [2]): 6/13
- tumor-free mice on Day 18 (MC38 hPD-L1 tumor cells; [2]): 6/13
- tumor growth / tumor volume (MC38 hPD-L1 tumor cells; i.p. dosing, compared to Fc control or anti-PD-L1): greater decrease in the median and mean tumor volumes
- tumor-free mice after re-challenge, day 59 (MC38 hPD-L1 tumor cells; [3]): 8/8
- tumor-free mice after re-challenge, day 63 (MC38 hPD-L1 tumor cells; [3]): tumor-free
